In patent publication US20220096487A1 (priority 2019, published 2022):

Test: Multiple-dose pharmacokinetic properties (Table 7)
Assay type: in vivo, human
Conditions: population PK, ART treatment-naive adults, 50 mg dolutegravir once daily

C[C@@H]1CCO[C@H]2Cn3cc(C(=O)NCc4ccc(F)cc4F)c(=O)c(O)c3C(=O)N12 [Dolutegravir, dolutegravir]
AUCtau, Mean (CV %): 53.6 (27%) mcg/h/mL
Cmax, Mean (CV %): 3.67 (20%) mcg/mL
Ctrough, Mean (CV %): 1.11 (46%) mcg/mL
